Measurements published in article PMC10539361, “Allosteric modulation of the fish taste receptor type 1 (T1R) family by the extracellular chloride ion” (Scientific Reports, 2023).

Biological target: T1, hT1R2/hT1R3 (Homo sapiens, UniProt Q7RTX0+Q8TE23)
T1 construct: expressed in transfected cells
T1 sequence (Q8TE23 20-839): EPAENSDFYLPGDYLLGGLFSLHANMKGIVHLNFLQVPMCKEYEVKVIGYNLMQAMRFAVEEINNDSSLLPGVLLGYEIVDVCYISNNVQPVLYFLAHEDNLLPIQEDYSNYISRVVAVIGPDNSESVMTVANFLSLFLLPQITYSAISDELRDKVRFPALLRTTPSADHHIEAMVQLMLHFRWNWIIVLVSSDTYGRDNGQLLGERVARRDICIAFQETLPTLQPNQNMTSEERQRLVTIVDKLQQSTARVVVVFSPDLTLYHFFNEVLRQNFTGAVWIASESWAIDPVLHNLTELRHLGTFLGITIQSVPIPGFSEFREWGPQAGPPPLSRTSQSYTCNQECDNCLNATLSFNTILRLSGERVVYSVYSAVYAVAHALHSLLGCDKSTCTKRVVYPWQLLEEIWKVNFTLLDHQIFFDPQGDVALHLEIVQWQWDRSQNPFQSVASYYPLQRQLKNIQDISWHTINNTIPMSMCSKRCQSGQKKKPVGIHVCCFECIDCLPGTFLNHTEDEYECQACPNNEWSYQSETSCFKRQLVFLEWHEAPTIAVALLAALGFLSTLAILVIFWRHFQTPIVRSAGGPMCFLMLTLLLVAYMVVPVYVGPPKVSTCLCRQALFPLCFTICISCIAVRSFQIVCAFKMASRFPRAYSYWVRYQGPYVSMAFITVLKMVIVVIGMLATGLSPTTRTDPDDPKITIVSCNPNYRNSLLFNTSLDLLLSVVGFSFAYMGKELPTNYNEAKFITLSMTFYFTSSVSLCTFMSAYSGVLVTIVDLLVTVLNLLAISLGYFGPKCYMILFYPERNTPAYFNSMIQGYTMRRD
T1 sequence (Q7RTX0 21-852): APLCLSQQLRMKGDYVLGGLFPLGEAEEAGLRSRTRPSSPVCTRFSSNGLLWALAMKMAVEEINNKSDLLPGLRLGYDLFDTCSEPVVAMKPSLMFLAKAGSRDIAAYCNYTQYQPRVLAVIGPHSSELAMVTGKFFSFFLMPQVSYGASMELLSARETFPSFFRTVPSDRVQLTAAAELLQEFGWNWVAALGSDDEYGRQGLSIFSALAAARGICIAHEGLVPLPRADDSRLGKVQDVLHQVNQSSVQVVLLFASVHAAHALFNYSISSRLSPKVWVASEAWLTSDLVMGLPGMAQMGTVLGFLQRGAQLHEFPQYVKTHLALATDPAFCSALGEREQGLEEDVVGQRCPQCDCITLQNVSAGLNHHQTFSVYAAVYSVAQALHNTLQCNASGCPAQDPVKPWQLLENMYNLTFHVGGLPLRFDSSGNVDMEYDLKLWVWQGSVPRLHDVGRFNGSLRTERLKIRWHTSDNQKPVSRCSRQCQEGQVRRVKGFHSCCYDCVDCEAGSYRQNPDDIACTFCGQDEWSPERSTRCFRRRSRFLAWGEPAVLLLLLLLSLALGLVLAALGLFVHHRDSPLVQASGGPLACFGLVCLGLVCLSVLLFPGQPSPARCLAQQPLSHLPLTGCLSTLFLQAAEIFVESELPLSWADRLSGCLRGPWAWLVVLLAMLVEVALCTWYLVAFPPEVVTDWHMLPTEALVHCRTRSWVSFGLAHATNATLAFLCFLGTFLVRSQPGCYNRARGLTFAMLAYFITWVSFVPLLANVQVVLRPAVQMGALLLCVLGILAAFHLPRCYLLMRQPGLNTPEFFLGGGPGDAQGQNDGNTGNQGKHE
Assay: Effect of anions, cations and osmotic pressure on cellular responses, cells in 10 mM Cl- buffer, hT1R2/hT1R3
Format: cell-based
Settings: for cellular response to the salt alone: without agonist, cells in 10 mM Cl- buffer
Protocol: Cells were seeded in 96-well plates coated with ε-poly-L-lysine at approximately 70,000 cells per well. […] Fluorescence changes were monitored at 2 s intervals, as described above. […] Three independent experiments were conducted for each receptor, and representative results are shown as the mean ± SEM (n = 3 replicates). Statistical tests were conducted using KyPlot version 6.0 (KyensLab Inc., Tokyo, Japan). Statistical significance was set at p < 0.05.

Row | SMILES | cellular response to the salt alone | response intensity to sucralose on coapplication of the salt at higher concentrations (coapplied with 150 µM sucralose, above 60 mM final [Cl-]o or equivalent osmotic pressure) | response intensity to sucralose on coapplication of the salt (coapplied with 150 µM sucralose, up to 60 mM [Cl-]o, compared to response at 10 mM [Cl-]o)
1 | O=C([O-])[C@H](O)[C@@H](O)[C@H](O)[C@H](O)CO.[Na+] [Na-gluconate, sodium gluconate] | neither NaCl nor Na-gluconate alone elicited cellular responses | – | –
2 | [Cl-].[Na+] [NaCl] | neither NaCl nor Na-gluconate alone elicited cellular responses | decreased | no significant difference
